From patent publication US7615353B1, “Tivozanib response prediction” (AVEO Pharmaceuticals, Inc., priority 2009, dated 2009)

Experiments:
preclinical models = settings: Nakamura et al., 2006; cited from earlier work
[1] = tested on: murine breast tumors (BH archive); assay: tumor response to tivozanib, subcutaneously transplanted murine Her2-driven breast tumors (BH archive) in NCr nude mice; assay type: in vivo, mouse
Source text: A population of more than 100 murine breast tumors (BH archive) was used to identify tumors that are sensitive to tivozanib (responders) and tumors that are resistant to tivozanib (non-responders). The BH archive was established by in vivo propagation and cryopreservation of primary tumor material from more than 100 spontaneous murine breast tumors derived from engineered chimeric mice that develop Her2-dependent, inducible spontaneous breast tumors. The mice were produced essentially as follows.
Tumor cells were isolated by physical disruption of the tumors using cell strainers. Typically 1×10^5 cells were mixed with matrigel (50:50 volume) and injected subcutaneously into female NCr nu/nu mice on upper dorsal region between the shoulder blades. When these tumors grew to approximately 500 mm^3, which typically required 2 to 4 weeks, they were collected for further propagation, drug response testing, and analysis. Analysis included microarray profiling, general histopathology, and IHC (CD31 for tumor vasculature, Ki67 for tumor cell proliferation).
Evaluation of tumor response to tivozanib was performed essentially as follows. Subcutaneously transplanted tumors were established by injecting physically disrupted tumor cells (mixed with Matrigel) into 7 week-old female NCr nude mice. When the tumors reached approximately 200-400 mm^3, 30 tumor-bearing mice were randomized into three groups. Group 1 received vehicle. Group 2 received tivozanib at 5 mg/kg daily by oral gavage. Group 3 received tivozanib at 20 mg/kg daily by oral gavage. Tumors were measured twice per week by a caliper, and tumor volume was calculated. At the end of the treatment, tumors were collected for histopathological analysis and IHC analysis.
Based on tumor growth inhibition and typical histopathological and IHC (CD31) characteristics for angiogenesis inhibition, responders and non-responders were identified. […]

[2] = 272-patient Phase 2 clinical trial; Bhargava et al., 2009; cited from earlier work
VEGF receptor 3 = VEGF receptor 3 (Homo sapiens, UniProt P35916); settings: Nakamura et al., 2006; cited from earlier work
Sequence of VEGF receptor 3 (P35916 25-1363): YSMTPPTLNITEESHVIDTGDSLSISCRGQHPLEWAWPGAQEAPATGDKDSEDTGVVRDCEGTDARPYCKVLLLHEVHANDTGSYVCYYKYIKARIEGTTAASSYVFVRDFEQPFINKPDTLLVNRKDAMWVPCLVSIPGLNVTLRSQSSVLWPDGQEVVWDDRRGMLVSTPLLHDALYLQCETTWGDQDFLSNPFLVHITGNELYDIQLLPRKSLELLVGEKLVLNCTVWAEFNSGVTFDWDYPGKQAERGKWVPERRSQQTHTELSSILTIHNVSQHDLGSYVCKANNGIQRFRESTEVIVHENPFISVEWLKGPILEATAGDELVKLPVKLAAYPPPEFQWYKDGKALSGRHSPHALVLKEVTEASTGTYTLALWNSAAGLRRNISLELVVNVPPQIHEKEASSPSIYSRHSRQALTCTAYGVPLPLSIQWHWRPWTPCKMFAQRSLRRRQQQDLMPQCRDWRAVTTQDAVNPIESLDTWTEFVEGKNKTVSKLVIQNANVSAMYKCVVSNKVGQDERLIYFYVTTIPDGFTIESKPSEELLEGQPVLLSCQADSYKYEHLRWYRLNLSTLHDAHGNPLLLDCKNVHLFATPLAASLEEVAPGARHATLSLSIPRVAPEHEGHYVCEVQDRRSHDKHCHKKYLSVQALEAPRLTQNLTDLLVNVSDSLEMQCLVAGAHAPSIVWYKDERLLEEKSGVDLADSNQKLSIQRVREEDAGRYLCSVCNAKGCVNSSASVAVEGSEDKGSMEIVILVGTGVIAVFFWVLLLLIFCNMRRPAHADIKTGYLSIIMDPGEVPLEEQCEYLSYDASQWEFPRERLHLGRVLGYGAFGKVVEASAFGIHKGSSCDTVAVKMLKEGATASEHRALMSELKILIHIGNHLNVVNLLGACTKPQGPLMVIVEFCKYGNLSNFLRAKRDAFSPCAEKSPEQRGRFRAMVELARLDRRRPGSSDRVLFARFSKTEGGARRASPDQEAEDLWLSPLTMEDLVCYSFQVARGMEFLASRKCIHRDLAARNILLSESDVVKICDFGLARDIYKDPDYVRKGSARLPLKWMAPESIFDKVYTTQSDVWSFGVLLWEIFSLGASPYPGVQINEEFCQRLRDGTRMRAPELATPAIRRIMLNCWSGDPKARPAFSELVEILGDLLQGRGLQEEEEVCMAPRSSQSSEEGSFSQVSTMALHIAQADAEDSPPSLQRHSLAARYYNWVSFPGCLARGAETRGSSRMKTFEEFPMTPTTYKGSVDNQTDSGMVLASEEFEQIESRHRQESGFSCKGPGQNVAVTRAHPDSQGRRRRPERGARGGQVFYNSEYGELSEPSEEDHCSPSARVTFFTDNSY

Structure (SMILES): COc1cc2nccc(Oc3ccc(NC(=O)Nc4cc(C)on4)c(Cl)c3)c2cc1OC [Tivozanib, N-{2-chloro-4-[(6,7-dimethoxy-4-quinolyl)oxy]-phenyl}-N′-(5-methyl-3-isoxazolyl)urea]
- antitumor activity (preclinical models): exhibits antitumor activity
- variation in response among tumors ([1]; 5 or 20 mg/kg daily by oral gavage, tumor growth inhibition, histopathology, IHC (CD31)): significant tumor-to-tumor variation in response
- tumor progression by caliper measurement ([1]; responder tumors, 5 mg/kg daily by oral gavage): no tumor progression
- tumor killing (by histology) ([1]; responder tumors, 5 mg/kg daily by oral gavage, except the peripheries): close to complete tumor killing
- interim results [2]: positive interim results
- inhibitory activity (VEGF receptor 3): picomolar
